This passage reports TGI and GI50 results from PubChem BioAssay (NCI).

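Compound exposure: 48 hours, 5 concentrations, 96-well plates. GI50: concentration for 50% inhibition of growth. The concentration for full growth arrest is given as TGI.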

Holding throughout (assay): DTP human tumour cell line panel, 48 h
Assay [1] has as its system CAKI-1 renal.
Assay [2] deals with CCRF-CEM leukemia.
For assay [3], the system named is IGROV1 ovarian.
Assay [4] concerns K-562 leukemia.
Assay [5] concerns M14 melanoma.
Assay [6] has as its system NCI-H23 lung.
The subject of assay [7] is SF-295 CNS.
Assay [8] has as its system SN12C renal.
Assay [9] relates to SNB-19 CNS.
For assay [10], the system named is TK-10 renal.

Consider `O=C(O)C1C2CC3C(OC(=O)C31)C2Br` (centres undefined), for which the TGI in [1] is over 100 µM; in [2], over 100 µM; in [3], over 100 µM; in [4], over 88.9 µM; in [5] it was over 100 µM; in assay [6], over 100 µM. Moreover, the TGI in assay [7], in [8], in assay [9] and in assay [10] was over 100 µM each time.
Take `CCC(Sc1nnc2c3ccccc3n(CC)c2n1)C(=O)Nc1ccccc1OC` (centres undefined): the GI50 in assay [1] was 0.76 µM; in assay [2] it was over 94.9 µM; in [3] it was over 93.8 µM; in [4], over 100 µM; in assay [5], over 100 µM; in assay [6], 3.41 µM. Besides, the GI50 in assay [7] is over 100 µM; in assay [8] it was 3.47 µM; in assay [9] it was over 100 µM; in assay [10], over 100 µM. The total growth inhibition concentration (TGI) is 5.32 µM in assay [1]; over 100 µM in assay [2]; over 100 µM in assay [3]; over 100 µM in assay [4]; over 100 µM in assay [5]; over 100 µM in assay [6]. Also, the TGI in assay [7], in assay [8], in assay [9] and in [10] was over 100 µM throughout.
With `CN(C)CCNc1ccc([N+](=O)[O-])c2nc3ccccc3c(N)c12`, the TGI is over 10 µM in assay [1]; over 10 µM in [2]; 2.78 µM in assay [3]; 5.35 µM in assay [4]; 1.94 µM in assay [5]; 6.55 µM in [6]. For the same compound, the concentration for total growth inhibition (TGI) in assay [7] was 8.1 µM; in [8] it was over 10 µM; in [9], over 10 µM; in assay [10], over 10 µM.
Take `O=c1c2ccc3cccc4c(=O)cc(c5ccccc15)-c2c34`: the TGI in [1], in assay [2], in assay [3], in assay [4], in [5] and in assay [6] was over 100 µM in each case. For the same compound, the TGI in assay [7], in [8], in assay [9] and in assay [10] was over 100 µM each time.
As to `O=C(Nc1ccc(Br)cc1)Nc1n[nH]c2ccccc12`, the GI50 in assay [1] is over 100 µM; in assay [2] it was 6.8 µM; in assay [3] it was 17.5 µM; in [4], 59.1 µM; in assay [5], over 100 µM; in assay [6], over 100 µM. The GI50 in assay [7], in assay [8] and in [9] was over 100 µM throughout. Further, the TGI in assay [1], in assay [2], in assay [3], in assay [4], in assay [5] and in [6] was over 100 µM each time. Besides, the TGI in [7] is over 100 µM; in assay [8], over 100 µM; in [9], over 100 µM; in assay [10], over 26.7 µM.
On to `CC(C)(C)c1ccc([I+]c2ccc(C(C)(C)C)cc2)cc1`, for which the GI50 is 8.3 µM in assay [1]; 1.17 µM in assay [2]; 2.33 µM in assay [3]; 0.55 µM in assay [4]; 1.47 µM in [5]; 1.69 µM in assay [6]. Further, the GI50 was 2.22 µM in assay [7], 1.99 µM in assay [8], 1.11 µM in assay [9] and 2.62 µM in assay [10]. For the same compound, the concentration for total growth inhibition (TGI) in assay [1] turned out to be 20.8 µM; in [2] it was 9.14 µM; in [3], 12.2 µM; in [4] it was 2.46 µM; in assay [5], 4.09 µM; in [6] it was 7.57 µM. Besides, the total growth inhibition concentration (TGI) in assay [7] was determined as 5.28 µM; in assay [8], 5.21 µM; in [9], 3.24 µM; in assay [10], 9.75 µM.
As to `[Cu+2].[O-]c1ccc2ccccc2c1N=Nc1ccccc1.[O-]c1ccc2ccccc2c1N=Nc1ccccc1`, the TGI in assay [1], in assay [2], in [3], in assay [4], in assay [5] and in assay [6] was over 100 µM each time. Also, the TGI in assay [7], in [8], in assay [9] and in [10] was over 100 µM each time. Further, the GI50 in [7] is over 100 µM.
In the case of `CS(=O)(=O)CCNCc1ccc(-c2ccc3ncnc(Nc4ccc(OCc5cccc(C(F)(F)F)c5)cc4)c3c2)o1`, the GI50 in assay [1] was 5.57 µM; in assay [2], 6.14 µM; in assay [3], 5.46 µM; in assay [4], 3.18 µM; in [5] it was 6.11 µM; in assay [6], 5.93 µM. The GI50 was 5.08 µM in assay [7], 7.81 µM in assay [8], 11.3 µM in assay [9] and 3.17 µM in [10]. Moreover, the TGI in [1] is over 19.8 µM; in assay [2] it was over 25 µM; in [3], over 17.5 µM; in assay [4], 15 µM; in [5], 13.9 µM; in assay [6], 15.7 µM. Moreover, the TGI in assay [7] was 11.3 µM; in assay [8], over 19.1 µM; in assay [9] it was over 25 µM; in assay [10] it was 11.1 µM.
Take `C#C[C@]1(O)CC[C@H]2[C@@H]3CC=C4c5sc(N=C(N)N)nc5CC[C@]4(C)[C@H]3CC[C@@]21C`: the GI50 in [1] was 0.615 µM; in [2] it was 0.365 µM; in [3], 1.03 µM; in assay [4], 0.354 µM; in [5] it was 0.497 µM; in [6], 1.26 µM. The GI50 is 0.188 µM in assay [7], 1.31 µM in assay [8], 1.11 µM in assay [9] and 1.85 µM in assay [10]. Also, the TGI in assay [1] worked out at 1.82 µM; in assay [2], 3.43 µM; in assay [3], 2.41 µM; in assay [4], 1.35 µM; in assay [5], 1.56 µM; in [6] it was 2.92 µM. Besides, the TGI in assay [7] worked out at 0.452 µM; in [8], 2.72 µM; in [9] it was 2.41 µM; in assay [10] it was 3.44 µM.
Regarding `CCC[C@H](N[C@@H]1CCc2cc(F)cc(F)c2C1)C(=O)Nc1cn(C(C)(C)CNCC(C)(C)C)cn1`, the GI50 is 5.94 µM in [1]; 14.7 µM in assay [2]; 28.6 µM in assay [3]; 8.33 µM in [4]; 10.5 µM in assay [5]; 17.3 µM in assay [6]. In addition, the GI50 in assay [7] was 15.4 µM; in assay [8] it was 24.8 µM; in [9], 26.6 µM; in assay [10] it was 21.8 µM. For the same compound, the TGI was 29 µM in assay [1]; over 63.6 µM in assay [2]; over 100 µM in assay [3]; over 89.2 µM in assay [4]; 26.9 µM in [5]; over 89.9 µM in assay [6]. Besides, the concentration for total growth inhibition (TGI) is 42.5 µM in assay [7], over 100 µM in assay [8], over 94.6 µM in [9] and 72.7 µM in [10].
On to `COc1ccc(-c2n[nH]nc2-c2csc3ccccc23)cc1OC`, for which the GI50 in assay [1] is 3.69 µM; in [2], 3.29 µM; in assay [3], 4.21 µM; in assay [4] it was 0.516 µM; in assay [5], 1.95 µM; in assay [6] it was 3.93 µM. Besides, the GI50 in assay [7] was 2.33 µM; in assay [8], 8.8 µM; in [9] it was 4.67 µM; in assay [10], 2.98 µM. Besides, the TGI in [1] is 34.2 µM; in [2], 32.9 µM; in [3] it was over 100 µM; in assay [4] it was over 100 µM; in assay [5] it was 15.6 µM; in assay [6] it was 27.9 µM. The TGI in assay [7] was found to be 11.7 µM; in [8] it was 79.9 µM; in assay [9], 45.1 µM; in assay [10] it was 19.8 µM.
In the case of `CCCCCCCCCCCCCCCc1cc(O)ccc1N`, the GI50 in assay [1] was 1.72 µM; in assay [2], 0.0518 µM; in assay [3], 0.416 µM; in assay [4] it was 10.7 µM; in assay [5], over 100 µM; in [6], over 96.2 µM. Further, the GI50 in [7] was 3.46 µM; in assay [8], over 20.1 µM; in assay [9], over 100 µM; in assay [10] it was over 63 µM. For the same compound, the TGI was 7.06 µM in assay [1]; 6.61 µM in assay [3]; over 38 µM in assay [4]; over 100 µM in [5]; over 100 µM in assay [6]; over 100 µM in assay [7]. The concentration for total growth inhibition (TGI) in assay [8], in assay [9] and in assay [10] was over 100 µM in each case.
In the case of `O=[N+]([O-])c1ccccc1N=Nc1c(O)[nH]c2ccccc12`, the total growth inhibition concentration (TGI) in assay [1] is over 54.7 µM; in assay [2] it was over 100 µM; in assay [3], over 39.9 µM; in [4], over 100 µM; in [5] it was over 100 µM; in assay [6], 35.9 µM. Besides, the TGI in [7] was over 100 µM; in assay [8] it was over 61.6 µM; in [9], over 100 µM; in assay [10], over 100 µM.
In the case of `CCOC(=O)/N=C(\N)SCc1ccccc1`, the TGI in [1], in [2], in [3], in [4], in assay [5] and in assay [6] was over 100 µM throughout. The TGI in [7], in [8], in [9] and in assay [10] was over 100 µM each time.
In the case of `CCCN(CCC)c1ccc(CO)c(C)c1`, the GI50 is 38.8 µM in assay [1]; 17.7 µM in assay [2]; 57 µM in assay [3]; 27.4 µM in [4]; over 100 µM in assay [5]; 35.4 µM in assay [6]. Also, the GI50 in [7] is over 100 µM; in [8], 79.4 µM; in assay [9], over 100 µM; in assay [10], 13.8 µM. The total growth inhibition concentration (TGI) in [1] was over 100 µM; in assay [2], 59.9 µM; in assay [3], over 100 µM; in [4] it was over 100 µM; in assay [5], over 100 µM; in assay [6] it was over 100 µM. Further, the concentration for total growth inhibition (TGI) in assay [7] is over 100 µM; in assay [8], over 100 µM; in assay [9] it was over 100 µM; in [10], 61 µM.
`CCC[CH2][Sn]([CH2]CCC)([O]C(=O)c1cccc(F)c1)[O]C(=O)c1cccc(F)c1`: the GI50 in [1] is 0.369 µM; in assay [2] it was 0.239 µM; in assay [3] it was 1.43 µM; in assay [4], 0.298 µM; in [5] it was 1.34 µM; in [6], 0.329 µM. The GI50 in assay [7] is 1.48 µM; in assay [8], 1.29 µM; in [9] it was 0.369 µM; in assay [10], 1.29 µM. Also, the total growth inhibition concentration (TGI) in assay [1] amounted to 1.43 µM; in assay [2] it was 0.832 µM; in assay [3], 2.93 µM; in assay [4], 1.81 µM; in assay [5] it was 2.88 µM; in [6], 1.57 µM. For the same compound, the TGI came to 2.86 µM in [7], 3.16 µM in [8], 1.39 µM in assay [9] and 2.58 µM in assay [10].
For `CC(ONC(=O)c1cc(C(F)(F)F)cc(C(F)(F)F)c1)C(=O)Nc1ccc(Cl)cc1` (centres undefined), the GI50 in assay [1] was 20.3 µM; in assay [2], 1.09 µM; in assay [3] it was 8.86 µM; in [4], 5.75 µM; in assay [5], 7.46 µM; in assay [6], 3.55 µM. Further, the GI50 in assay [7] was 3.66 µM; in assay [8], 5.44 µM; in assay [9], 5.64 µM; in assay [10] it was 5.42 µM. Besides, the concentration for total growth inhibition (TGI) in assay [1] is over 76.6 µM; in [2], 5.38 µM; in [3] it was over 52 µM; in assay [4] it was over 45.5 µM; in [5], 25.3 µM; in assay [6], 10.6 µM. For the same compound, the TGI was 30.9 µM in assay [7], over 100 µM in [8], over 100 µM in assay [9] and over 75.1 µM in assay [10].
As for `O=c1ccccc2cccc(O)c12`, the TGI in assay [1], in assay [2], in assay [3], in assay [4], in [5] and in assay [6] was over 100 µM throughout. For the same compound, the total growth inhibition concentration (TGI) in assay [7], in assay [8], in assay [9] and in assay [10] was over 100 µM each time.
